Experimental data from PubChem BioAssay (NCI).
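Where inhibition never reached the appropriate level, the endpoint shown equals the highest concentration tested. Otherwise, values were interpolated linearly from a five-concentration, 48-hour dose response in 96-well plates. The concentration for full growth arrest is given as TGI.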

Assays:
Assay in all cases: inhibition of tumour cell growth, NCI panel, 48 h
[1] = system: HCC-2998 colon
[2] = system: XF 498 CNS
[3] = system: HCT-116 colon
[4] = system: DMS 273 small cell lung
[5] = system: KM20L2 colon
[6] = system: SF-539 CNS
[7] = system: DLD-1 colon
[8] = system: MALME-3M melanoma
[9] = system: SK-MEL-5 melanoma
[10] = system: HOP-92 NSCLC
[11] = system: SW-620 colon
[12] = system: CCRF-CEM leukemia
[13] = system: SNB-75 CNS
[14] = system: OVCAR-4 ovarian
[15] = system: OVCAR-8 ovarian
[16] = system: TK-10 renal
[17] = system: RXF 393 renal
[18] = system: UACC-62 melanoma
[19] = system: NCI-H522 lung
[20] = system: A549 NSCLC
[21] = system: U251 CNS
[22] = system: HT29 colon
[23] = system: OVCAR-5 ovarian
[24] = system: LXFL 529 NSCLC
[25] = system: HOP-62 NSCLC
[26] = system: HCT-15 colon
[27] = system: NCI-H23 lung
[28] = system: M14 melanoma
[29] = system: UACC-257 melanoma
[30] = system: ACHN renal
[31] = system: UO-31 renal
[32] = system: MOLT-4 leukemia
[33] = system: SNB-19 CNS
[34] = system: IGROV1 ovarian
[35] = system: EKVX NSCLC
[36] = system: RPMI-8226 leukemia
[37] = system: K-562 leukemia
[38] = system: SF-295 CNS
[39] = system: SNB-78 CNS
[40] = system: RXF-631 renal
[41] = system: OVCAR-3 ovarian
[42] = system: SK-MEL-2 melanoma
[43] = system: SF-268 CNS
[44] = system: DMS 114 small cell lung
[45] = system: KM12 colon
[46] = system: SK-MEL-28 melanoma
[47] = system: SN12C renal
[48] = system: HL-60(TB) leukemia
[49] = system: NCI-H460 lung
[50] = system: COLO 205 colon
[51] = system: M19-MEL melanoma
[52] = system: 786-0 renal

COC(=O)C1=C(C(=O)OC)C23CC1C1C(C(=O)OC)=C(C(=O)OC)C12C1C=CC3C2C(=O)OC(=O)C21 (configuration not stated)
TGI [1]: > 100 µM | TGI [2]: > 100 µM | TGI [3]: > 100 µM | TGI [4]: > 100 µM | TGI [5]: > 100 µM | TGI [6]: > 100 µM | TGI [7]: > 100 µM | TGI [8]: > 100 µM | TGI [9]: > 100 µM | TGI [10]: > 100 µM | TGI [11]: > 100 µM | TGI [12]: > 100 µM | TGI [13]: 47.7 µM | TGI [14]: > 100 µM | TGI [15]: > 100 µM | TGI [16]: > 100 µM | TGI [17]: > 100 µM | TGI [18]: > 100 µM | TGI [19]: 63.5 µM | TGI [20]: > 100 µM | TGI [21]: > 100 µM | TGI [22]: > 100 µM | TGI [23]: > 100 µM | TGI [24]: > 100 µM | TGI [25]: > 100 µM | TGI [26]: > 100 µM | TGI [27]: > 100 µM | TGI [28]: > 100 µM | TGI [29]: > 100 µM | TGI [30]: > 100 µM | TGI [31]: > 100 µM | TGI [32]: > 100 µM | TGI [33]: > 100 µM | TGI [34]: > 100 µM | TGI [35]: > 100 µM | TGI [36]: > 100 µM | TGI [37]: > 100 µM | TGI [38]: > 100 µM | TGI [39]: > 100 µM | TGI [40]: > 100 µM | TGI [41]: 17.6 µM | TGI [42]: > 100 µM | TGI [43]: > 100 µM | TGI [44]: 80.3 µM | TGI [45]: > 100 µM | TGI [46]: > 100 µM | TGI [47]: > 100 µM | TGI [48]: > 100 µM | TGI [49]: > 100 µM | TGI [50]: 64.9 µM | TGI [51]: > 100 µM | TGI [52]: > 100 µM
